Experimental data taken from patent US10253002B2, “Compounds and methods of treating infections” (Neoculi Pty Ltd., priority 2013, dated 2019).
Values after ≈ are worked out from the molar mass of the structure shown. Values joined by “and” are separate entries in the source; they are usually repeats but may differ in a detail not shown here. Identical values can stand only once.

Assays:
[1] = system: S. pneumoniae isolates; experiment: Disk diffusion susceptibility (CLSI/EUCAST), Example 5; assay type: cell-based, Streptococcus pneumoniae
How it was run: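 Susceptibility to 12 antimicrobials was categorised (S/I/R) using CLSI breakpoints from zones of complete inhibition, read thrice to the nearest millimetre with the mode taken. Incubation was 16–24 h, 37 °C, 5% CO2.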

[2] = system: Staphylococcus pseudintermedius isolates (MSSP and MRSP); experiment: Disk diffusion and Epsilometer susceptibility testing, Example 6; assay type: cell-based; conditions: 13 MRSP isolates
[3] = system: Staphylococcus aureus T3-129 / Staphylococcus spp. MK1; experiment: Synergy studies, checkerboard method (FIC index); assay type: cell-based; conditions: for FICI: FIC index of antibiotic with NCL812; for Result (interaction with NCL812): antibiotic with NCL812
[4] = system: S. aureus isolates (HA-MRSA, CA-MRSA, methicillin-susceptible staphylococci); experiment: Kirby-Bauer disc diffusion resistotyping, Example 4; assay type: cell-based, Staphylococcus aureus; conditions: for Total isolates resistant (Kirby-Bauer disc diffusion): all isolates (n = 30)
Protocol: Antibiotic-susceptibility profiling of the isolate collection was undertaken using Kirby-Bauer disc diffusion, as recommended by the Clinical and Laboratory Standards Institute (CLSI) on Mueller-Hinton agar. Isolates were grown overnight on SBA at 37° C. Colonies were suspended in physiological saline. Turbidity was adjusted to a 0.5 McFarland standard and suspensions were spread over the medium. Antibiotic discs according to Table 9 below were transferred onto the inoculated medium and analysed after 24 h incubation at 37° C.

[5] = system: S. pneumoniae isolates; experiment: Micro-broth dilution MIC, Example 5; assay type: cell-based, Streptococcus pneumoniae; conditions: Streptococcus pneumoniae, isolate D39; Table 28
Protocol: For all in vitro assays, fresh pneumococcal isolates were grown overnight (O/N) on horse blood agar (HBA) plates (39 g/L Columbia blood agar base [Oxoid] 5% [v/v] defribinated horse blood [Oxoid] at 37° C. with 5% supplemented CO2). Mueller-Hinton blood agar with 5% defibrinated sheep blood (MHSBA Roseworthy Media and Blood Service) was used for disk diffusion analysis as directed by Clinical Laboratory Standards Institute (CLSI) standards. Pneumococci were routinely grown in broth consisting of 4% lysed horse blood (LHB) with Cation Adjusted Mueller Hinton Broth (CAHMB, [Difco]) at 37° C. with 5% supplemented CO2. […] Isolates were stored in HSB at −80° C.
(§1) [Micro-broth dilutions and 96 well trays are prepared by the following method: 90 μL of 4% LHB:CAMHB is aliquotted into all wells using a multichannel pipette. 90 μL of working antimicrobial stocks were no serial diluted down the tray by a 1:2 dilution. Negative broth controls and dilution control were taken into account when planning the set up of a 96 well tray.] 10 μL of bacterial suspension was then added to the appropriate wells in the 96 well tray. Appropriate positive (no antimicrobial), negative (no antimicrobial or bacteria) and negative dilution (a serial dilution control of antimicrobial and broth) controls were included in each assay. […] The MBC was determined by a 99.95% inhibition of S. pneumoniae, taking into account the dilution factor. MICs and MBCs were determined in quadruplicate and the mode was taken as the representative value. The MIC50, MIC90 and MIC range and MBC50, MBC90 and MBC range were determined according to CLSI standards. The MIC50 and MIC90, or MBC50 and MBC90, are defined by the lowest concentrations which, when all the MICs and MBCs of the isolates are arranged from lowest to highest, inhibited the 50th and 90th percentile of the total amount of isolates, respectively.

[6] = system: S. pneumoniae isolates; experiment: MBC, Example 5; assay type: cell-based, Streptococcus pneumoniae; conditions: Streptococcus pneumoniae, isolate D39; Table 28; read-out: MBC
Protocol: as §1

[7] = system: Escherichia coli; experiment: Broth microdilution MIC, Example 7 (NCL812 and analogues); assay type: cell-based; conditions: E. coli ATCC25922, 24 hours
[8] = system: Pseudomonas aeruginosa; experiment: as above; assay type: cell-based; conditions: Pseudomonas #008, 24 hours
[9] = system: S. aureus ATCC29213; experiment: Broth microdilution MIC, Example 7 (NCL analogues), Table 42; assay type: cell-based, Staphylococcus aureus; conditions: S. aureus ATCC29213, 24 hours
[10] = system: E. faecalis #32; experiment: as above; assay type: cell-based, Enterococcus faecalis; conditions: E. faecalis #32, 24 hours
[11] = Methicillin-susceptible staphylococci (n = 10)

Compound | disk diffusion zone diameter ([1]; A66.1) | disk diffusion zone diameter ([1]; D39) | disk diffusion zone diameter ([1]; EF3030) | disk diffusion zone diameter ([1]; L82016) | disk diffusion zone diameter ([1]; P9) | disk diffusion zone diameter ([1]; P21) | disk diffusion zone diameter ([1]; TIGR4) | disk diffusion zone diameter ([1]; WCH16) | disk diffusion zone diameter ([1]; WCH43) | disk diffusion zone diameter ([1]; WCH46) | disk diffusion zone diameter ([1]; WCH57) | disk diffusion zone diameter ([1]; WCH77) | disk diffusion zone diameter ([1]; WCH86) | disk diffusion zone diameter ([1]; WCH89) | disk diffusion zone diameter ([1]; WCH92) | disk diffusion zone diameter ([1]; WCH137) | MIC (μg/ml) at 24 hours E. coli ATCC25922 [7] | MIC (μg/ml) at 24 hours Pseudomonas #008 [8] | MIC (μg/ml) at 24 hours S. aureus ATCC29213 [9] | MIC (μg/ml) at 24 hours E. faecalis #32 [10] | also measured
O=C(N[C@H](CO)[C@H](O)c1ccc([N+](=O)[O-])cc1)C(Cl)Cl [Chloramphenicol] | 34 mm | 31 mm | 29 mm | 26 mm | 31 mm | 35 mm | 32 mm | 11 mm | 26 mm | 28 mm | 40 mm | 36 mm | 34 mm | 32 mm | 32 mm | 31 mm |  |  |  |  | disk diffusion susceptibility category ([1]; WCH16 (Table 18)): R; disk diffusion zone diameter ([1]; WCH158): 34 mm; disk diffusion zone diameter ([1]; WCH184): 29 mm; disk diffusion zone diameter ([1]; WCH211): 32 mm; disk diffusion zone diameter ([1]; WU2): 30 mm; MRSP isolates susceptible [2]: 23%; FICI ([3]; S. aureus strain T3-29): 0.75 and 0.562; Antibiotic MIC Alone ([3]; S. aureus strain T3-29): 8 µg/mL and 4 µg/mL; Result (interaction with NCL812) ([3]; S. aureus strain T3-29): NE (No effect (NE) was defined as 0.5<FICI<4)
CC[C@H]1OC(=O)[C@H](C)[C@@H](O[C@H]2C[C@@](C)(OC)[C@@H](O)[C@H](C)O2)[C@H](C)[C@@H](O[C@@H]2O[C@H](C)C[C@H](N(C)C)[C@H]2O)[C@](C)(O)C[C@@H](C)C(=O)[C@H](C)[C@@H](O)[C@]1(C)O [Erythromycin] | 33 mm | 35 mm | 30 mm | 29 mm | 32 mm | 35 mm | 34 mm | 34 mm | 29 mm | 27 mm | 41 mm | 37 mm | 30 mm | 35 mm | 28 mm | 34 mm |  |  |  |  | isolates resistant (Kirby-Bauer disc diffusion) ([4]; CA-MRSA (n = 10)): 100.00%; isolates resistant (Kirby-Bauer disc diffusion) ([4]; HA-MRSA (n = 10)): 80.00%; isolates resistant (Kirby-Bauer disc diffusion) [4, 11]: 40.00%; Total isolates resistant (Kirby-Bauer disc diffusion) [4]: 73.33%; Total isolates resistant (Kirby-Bauer disc diffusion) ([4]; listed as erythromycin): 73.33%; disk diffusion zone diameter ([1]; WCH158): 34 mm; disk diffusion zone diameter ([1]; WCH184): 10 mm; disk diffusion susceptibility category ([1]; WCH184 (Table 19)): R; disk diffusion zone diameter ([1]; WCH211): 33 mm; disk diffusion zone diameter ([1]; WU2): 34 mm; Resistance status to Erythromycin ([1]; isolate D39): Sensitive; MIC [5]: 0.00275 µg/mL (≈ 0.00375 µM); MBC [6]: 0.00275 µg/mL (≈ 0.00375 µM); FICI ([3]; S. aureus strain T3-29): 0.75 and 0.562 and 0.5 and 0.531; Antibiotic MIC Alone ([3]; S. aureus strain T3-29): 0.25 µg/mL; Result (interaction with NCL812) ([3]; S. aureus strain T3-29): NE (No effect (NE) was defined as 0.5<FICI<4)
C/C(=N\Nc1cc(N/N=C(\C)c2ccc(Cl)cc2)ncn1)c1ccc(Cl)cc1 [NCL 178] |  |  |  |  |  |  |  |  |  |  |  |  |  |  |  |  | >64 µg/mL | >64 µg/mL | >64 µg/mL | >64 µg/mL | 
Nc1nc(N/N=C/c2ccc(Cl)cc2)cc(N/N=C/c2ccc(Cl)cc2)n1 [NCL 179] |  |  |  |  |  |  |  |  |  |  |  |  |  |  |  |  | >64 µg/mL | >64 µg/mL | 4 µg/mL (≈ 9.99 µM) | 8 µg/mL (≈ 20 µM) | 
OC/C(=N\Nc1cc(N/N=C(\CO)c2ccc(Cl)cc2)ncn1)c1ccc(Cl)cc1 [NCL 180] |  |  |  |  |  |  |  |  |  |  |  |  |  |  |  |  | >64 µg/mL | >64 µg/mL | >64 µg/mL | 64 µg/mL (≈ 144 µM) | 
Clc1ccc(/C=N/Nc2cc(N/N=C/c3ccc(Cl)cc3)ncn2)cc1 [NCL 181] |  |  |  |  |  |  |  |  |  |  |  |  |  |  |  |  | >64 µg/mL | >64 µg/mL | >64 µg/mL | >64 µg/mL | 
CN(C)[C@@H]1C(O)=C(C(N)=O)C(=O)[C@@]2(O)C(O)=C3C(=O)c4c(O)cccc4[C@@](C)(O)[C@H]3C[C@@H]12 [Tetracycline] | 32 mm | 35 mm | 34 mm | 32 mm | 32 mm | 38 mm | 35 mm | 18 mm | 31 mm | 30 mm | 48 mm | 39 mm | 31 mm | 35 mm | 29 mm | 37 mm |  |  |  |  | isolates resistant (Kirby-Bauer disc diffusion) ([4]; CA-MRSA (n = 10)): 30.00%; isolates resistant (Kirby-Bauer disc diffusion) ([4]; HA-MRSA (n = 10)): 30.00%; isolates resistant (Kirby-Bauer disc diffusion) [4, 11]: 0.00%; Total isolates resistant (Kirby-Bauer disc diffusion) [4]: 20.00%; disk diffusion susceptibility category ([1]; WCH16 (Table 19)): R; disk diffusion zone diameter ([1]; WCH158): 35 mm; disk diffusion zone diameter ([1]; WCH184): 11 mm; disk diffusion susceptibility category ([1]; WCH184 (Table 19)): R; disk diffusion zone diameter ([1]; WCH211): 36-37 mm; disk diffusion zone diameter ([1]; WU2): 34 mm; FICI ([3]; S. aureus strain T3-29): 0.625 and 0.75 and 0.62; Antibiotic MIC Alone ([3]; S. aureus strain T3-29): 0.25 µg/mL and 0.5 µg/mL; Result (interaction with NCL812) ([3]; S. aureus strain T3-29): NE (No effect (NE) was defined as 0.5<FICI<4)
Gentamicin |  |  |  |  |  |  |  |  |  |  |  |  |  |  |  |  |  |  |  |  | isolates resistant (Kirby-Bauer disc diffusion) ([4]; CA-MRSA (n = 10)): 0.00%; isolates resistant (Kirby-Bauer disc diffusion) ([4]; HA-MRSA (n = 10)): 20.00%; isolates resistant (Kirby-Bauer disc diffusion) [4, 11]: 0.00%; Total isolates resistant (Kirby-Bauer disc diffusion) [4]: 20.00%; FICI ([3]; Staphylococcus spp. Strain MK1): 0.625 and 0.75 and 0.515; Antibiotic MIC Alone ([3]; Staphylococcus spp. Strain MK1): 1 µg/mL and 0.5 µg/mL; Result (interaction with NCL812) ([3]; Staphylococcus spp. Strain MK1): NE (No effect (NE) was defined as 0.5<FICI<4)
